Laboratory results taken from US20030171329A1, “Stable compositions comprising tezacitabine” (priority 2002, published 2003).
Where two headings read alike, the source gives them in different places.

Assays:
[1] = Protocol: In this study the stabilty of FMdC glutamate and glycine buffers at pH 8.5 to 9.5 was evaluated at various storage conditions (5°, 25°, 35°, 45°, and 55° C.). FMdC solutions were made up at 1 mg/mL in 7.1 mg/mL monosodium glutamate monohydrate (38 mM) or 2.8 mg/mL glycine (37 mM) and pH adjusted to target with sodium hydroxide. Solution samples were placed in stoppered glass vials and stored at the various temperatures. […] Detention was by UV at 268 nm.
The higher-temperature data can be evaluated further by Arrhenius analysis to predict shelf lives at lower temperatures. First-order rate constants are determined by fitting the concentration and time data to an equation of the form C(t)=C(0)·exp (−k·t), where C(t) is the concentration at time t, C(0) is the concentration at time 0, t is the time, and k is the first-order rate constant. The rate constants are in turn fitted to an equation of the form k (T)=A·exp (−Ea/RT), where k(T) is the rate constant at temperature T, Ea is the energy of activation, R is the gas constant, T is the absolute temperature (in ° K), and A is a constant.

[2] = Stability of tezacitabine in unbuffered aqueous solution; type: physicochemical
[3] = human patients with solid tumors, Phase I clinical trials; cited from earlier work
[4] = Glutamate pH 8.5 buffer, 5° C., 24 weeks
[5] = Glutamate pH 8.5 buffer, 25° C., 0 weeks
[6] = Glutamate pH 8.5 buffer, 25° C., 4 weeks
[7] = Glutamate pH 8.5 buffer, 25° C., 16 weeks
[8] = Glutamate pH 8.5 buffer, 25° C., 24 weeks
[9] = Glutamate pH 8.5 buffer, 35° C., 0 weeks
[10] = Glutamate pH 8.5 buffer, 35° C., 4 weeks
[11] = Glutamate pH 8.5 buffer, 35° C., 16 weeks
[12] = Glutamate pH 8.5 buffer, 35° C., 24 weeks
[13] = Glutamate pH 8.5 buffer, 45° C., 0 weeks
[14] = Glutamate pH 8.5 buffer, 45° C., 4 weeks
[15] = Glutamate pH 9.0 buffer, 5° C., 24 weeks
[16] = Glutamate pH 9.0 buffer, 25° C., 0 weeks
[17] = Glutamate pH 9.0 buffer, 25° C., 4 weeks
[18] = Glutamate pH 9.0 buffer, 25° C., 16 weeks
[19] = Glutamate pH 9.0 buffer, 25° C., 24 weeks
[20] = Glutamate pH 9.0 buffer, 35° C., 0 weeks
[21] = Glutamate pH 9.0 buffer, 35° C., 4 weeks
[22] = Glutamate pH 9.0 buffer, 35° C., 16 weeks
[23] = Glutamate pH 9.0 buffer, 35° C., 24 weeks
[24] = Glutamate pH 9.0 buffer, 45° C., 0 weeks
[25] = Glutamate pH 9.0 buffer, 45° C., 4 weeks
[26] = Glutamate pH 9.5 buffer, 5° C., 24 weeks
[27] = Glutamate pH 9.5 buffer, 25° C., 0 weeks
[28] = Glutamate pH 9.5 buffer, 25° C., 4 weeks
[29] = Glutamate pH 9.5 buffer, 25° C., 16 weeks
[30] = Glutamate pH 9.5 buffer, 25° C., 24 weeks
[31] = Glutamate pH 9.5 buffer, 35° C., 0 weeks
[32] = Glutamate pH 9.5 buffer, 35° C., 4 weeks
[33] = Glutamate pH 9.5 buffer, 35° C., 16 weeks
[34] = Glutamate pH 9.5 buffer, 35° C., 24 weeks
[35] = Glutamate pH 9.5 buffer, 45° C., 0 weeks
[36] = Glutamate pH 9.5 buffer, 45° C., 4 weeks
[37] = Glycine pH 9.0 buffer, 5° C., 24 weeks
[38] = Glycine pH 9.0 buffer, 25° C., 0 weeks
[39] = Glycine pH 9.0 buffer, 25° C., 4 weeks
[40] = Glycine pH 9.0 buffer, 25° C., 16 weeks
[41] = Glycine pH 9.0 buffer, 25° C., 24 weeks
[42] = Glycine pH 9.0 buffer, 35° C., 0 weeks
[43] = Glycine pH 9.0 buffer, 35° C., 16 weeks
[44] = Glycine pH 9.0 buffer, 35° C., 24 weeks
[45] = Glycine pH 9.0 buffer, 45° C., 0 weeks

In the case of Nc1ccn([C@@H]2O[C@H](CO)[C@@H](O)/C2=C\F)c(=O)n1 [FMdC, (E)-2′-deoxy-2′-(fluoromethylene)cytidine], the stability in words ([1]; 1 mg/mL) is reported as “stable for almost 6 months”, the “predicted first-order rate constant of degradation” value ([1]; 1 mg/mL, pH 9) is reported as 3.0·10^−4 week^−1 and the FMdC ([1]; Glutamate pH 8.5 buffer, 5° C., 12 weeks) is reported as 1.00 mg/mL. For the same molecule, the pH ([1]; Glutamate pH 8.5 buffer, 5° C., 16 weeks) was 8.63, the FMdC [1, 4] was 1.00 mg/mL and the pH [1, 4] was 8.66. It also gave an FMdC [1, 5] of 1.00 mg/mL, a pH [1, 5] of 8.50 and an FMdC [1, 6] of 1.00 mg/mL. For the same molecule, the pH [1, 6] was 8.55, the FMdC [1, 7] was 0.99 mg/mL and the pH [1, 7] was 7.93. The FMdC [1, 8] was 0.99 mg/mL, the pH [1, 8] was 8.64 and the FMdC [1, 9] was 1.00 mg/mL. It also gave a pH [1, 9] of 8.50, an FMdC [1, 10] of 1.00 mg/mL and a pH [1, 10] of 8.55. It also gave an FMdC [1, 11] of 0.97 mg/mL, a pH [1, 11] of 8.59 and an FMdC [1, 12] of 0.95 mg/mL. It also gave a pH [1, 12] of 8.58, an FMdC [1, 13] of 1.00 mg/mL and a pH [1, 13] of 8.50. It also gave an FMdC [1, 14] of 0.98 mg/mL, a pH [1, 14] of 8.56 and an FMdC ([1]; Glutamate pH 8.5 buffer, 45° C., 16 weeks) of 0.85 mg/mL. It also gave an FMdC ([1]; Glutamate pH 8.5 buffer, 45° C., 24 weeks) of 0.47 mg/mL, an FMdC ([1]; Glutamate pH 8.5 buffer, 55° C., 0 weeks) of 1.00 mg/mL and an FMdC ([1]; Glutamate pH 8.5 buffer, 55° C., 2 weeks) of 0.91 mg/mL. For the same molecule, the FMdC ([1]; Glutamate pH 8.5 buffer, 55° C., 4 weeks) was 0.72 mg/mL, the FMdC ([1]; Glutamate pH 8.5 buffer, 55° C., 8 weeks) was 0.03 mg/mL and the FMdC ([1]; Glutamate pH 9.0 buffer, 5° C., 12 weeks) was 1.00 mg/mL. For the same molecule, the pH ([1]; Glutamate pH 9.0 buffer, 5° C., 16 weeks) was 9.10, the FMdC [1, 15] was 1.00 mg/mL and the pH [1, 15] was 9.05. It also gave an FMdC [1, 16] of 1.01 mg/mL, a pH [1, 16] of 9.00 and an FMdC [1, 17] of 1.01 mg/mL. The pH [1, 17] was 9.07, the FMdC [1, 18] was 0.99 mg/mL and the pH [1, 18] was 8.80. It also gave an FMdC [1, 19] of 0.99 mg/mL, a pH [1, 19] of 9.09 and an FMdC [1, 20] of 1.01 mg/mL. The pH [1, 20] was 9.00, the FMdC [1, 21] was 1.01 mg/mL and the pH [1, 21] was 9.06. It also gave an FMdC [1, 22] of 0.98 mg/mL, a pH [1, 22] of 9.08 and an FMdC [1, 23] of 0.98 mg/mL. The pH [1, 23] was 9.08, the FMdC [1, 24] was 1.01 mg/mL and the pH [1, 24] was 9.00. It also gave an FMdC [1, 25] of 0.99 mg/mL, a pH [1, 25] of 9.04 and an FMdC ([1]; Glutamate pH 9.0 buffer, 45° C., 16 weeks) of 0.92 mg/mL. It also gave an FMdC ([1]; Glutamate pH 9.0 buffer, 45° C., 24 weeks) of 0.88 mg/mL, an FMdC ([1]; Glutamate pH 9.0 buffer, 55° C., 0 weeks) of 1.01 mg/mL and an FMdC ([1]; Glutamate pH 9.0 buffer, 55° C., 2 weeks) of 0.96 mg/mL. It also gave an FMdC ([1]; Glutamate pH 9.0 buffer, 55° C., 4 weeks) of 0.91 mg/mL, an FMdC ([1]; Glutamate pH 9.0 buffer, 55° C., 8 weeks) of 0.78 mg/mL and an FMdC ([1]; Glutamate pH 9.5 buffer, 5° C., 12 weeks) of 1.00 mglmL. It also gave a pH ([1]; Glutamate pH 9.5 buffer, 5° C., 16 weeks) of 9.54, an FMdC [1, 26] of 1.01 mglmL and a pH [1, 26] of 9.57. The FMdC [1, 27] was 1.00 mglmL, the pH [1, 27] was 9.50 and the FMdC [1, 28] was 1.00 mglmL. It also gave a pH [1, 28] of 9.53, an FMdC [1, 29] of 1.00 mglmL and a pH [1, 29] of 9.55. For the same molecule, the FMdC [1, 30] was 0.99 mglmL, the pH [1, 30] was 9.57 and the FMdC [1, 31] was 1.00 mglmL. The pH [1, 31] was 9.50, the FMdC [1, 32] was 1.00 mglmL and the pH [1, 32] was 9.54. The FMdC [1, 33] was 0.98 mglmL, the pH [1, 33] was 9.59 and the FMdC [1, 34] was 0.97 mglmL. The pH [1, 34] was 9.62, the FMdC [1, 35] was 1.00 mglmL and the pH [1, 35] was 9.50. It also gave an FMdC [1, 36] of 0.99 mglmL, a pH [1, 36] of 9.56 and an FMdC ([1]; Glutamate pH 9.5 buffer, 45° C., 16 weeks) of 0.92 mglmL. It also gave an FMdC ([1]; Glutamate pH 9.5 buffer, 45° C., 24 weeks) of 0.89 mglmL, an FMdC ([1]; Glutamate pH 9.5 buffer, 55° C., 0 weeks) of 1.00 mglmL and an FMdC ([1]; Glutamate pH 9.5 buffer, 55° C., 2 weeks) of 0.97 mglmL. The FMdC ([1]; Glutamate pH 9.5 buffer, 55° C., 4 weeks) was 0.93 mglmL, the FMdC ([1]; Glutamate pH 9.5 buffer, 55° C., 8 weeks) was 0.82 mglmL and the FMdC ([1]; Glycine pH 9.0 buffer, 5° C., 12 weeks) was 1.01 mg/mL. For the same molecule, the pH ([1]; Glycine pH 9.0 buffer, 5° C., 16 weeks) was 9.30, the FMdC [1, 37] was 1.00 mg/mL and the pH [1, 37] was 9.33. The FMdC [1, 38] was 1.00 mg/mL, the pH [1, 38] was 9.00 and the FMdC [1, 39] was 1.01 mg/mL. For the same molecule, the pH [1, 39] was 9.33, the FMdC [1, 40] was 1.00 mg/mL and the pH [1, 40] was 9.30. The FMdC [1, 41] was 0.99 mg/mL, the pH [1, 41] was 9.32 and the FMdC [1, 42] was 1.00 mg/mL. For the same molecule, the pH [1, 42] was 9.00, the pH ([1]; Glycine pH 9.0 buffer, 35° C., 4 weeks) was 9.32 and the FMdC [1, 43] was 0.98 mg/mL. It also gave a pH [1, 43] of 9.32, an FMdC [1, 44] of 0.97 mg/mL and a pH [1, 44] of 9.31. For the same molecule, the FMdC [1, 45] was 1.00 mg/mL, the pH [1, 45] was 9.00 and the FMdC ([1]; Glycine pH 9.0 buffer, 45° C., 4 weeks) was 0.99 mg/mL. For the same molecule, the FMdC ([1]; Glycine pH 9.0 buffer, 45° C., 16 weeks) was 0.92 mg/mL, the FMdC ([1]; Glycine pH 9.0 buffer, 45° C., 24 weeks) was 0.88 mg/mL and the FMdC ([1]; Glycine pH 9.0 buffer, 55° C., 0 weeks) was 1.00 mg/mL. For the same molecule, the FMdC ([1]; Glycine pH 9.0 buffer, 55° C., 4 weeks) was 0.91 mg/mL, the “shelf-life (time at which 5% degradation would be expected)” value ([1]; pH 9) was “several years” and the pH before storage ([2]; 35° C., start) was “about 7.2”. The “loss of drug (HPLC)” value ([2]; 35° C., within 4 days) was “greater than 90%”, the pH after storage ([2]; 35° C., within 4 days) was “about 4.3” and the “colour change of solution, indicative of degradation” value ([2]; room temperature, within five days) was “changes from colorless to yellow to light brown”. The tolerability [3] was “well tolerated”.
